Our source for the IC50, Activity and inhibition values is ChEMBL document CHEMBL5537197, “Discovery of Novel Coumarin-quinolinium Derivatives as Pan-KRAS Translation Inhibitors by Targeting 5'-UTR RNA G-Quadruplexes” (J Med Chem, 2024).

Activity calls are given as the source filed them. The calls are words filed in the database; no cut-off is given here. A value given as a limit tells only on which side of the number the result lay.

Data set [1] in a line: Cytotoxicity against human PANC-1 cells […] assessed as cell growth inhibition incubated for 24 hrs by MTT assay. The data set is classed as functional, cell-based. As to conditions: PANC-1, 24 h.
Data set [2] relates to MIA PaCa-2. Put plainly: Cytotoxicity against human MIA PaCa-2 cells harboring KRAS G12C mutant assessed as cell growth inhibition incubated for 24 hrs by MTT assay. It is filed as functional, cell-based. As to conditions: MIA PaCa-2, 24 h. A general note: Formazan colour is commonly taken as a measure of viable cells.
In the next data set the test system is PANC-1. Put plainly: Cytotoxicity against human PANC-1 cells harboring KRAS G12D mutant assessed as cell growth inhibition incubated for 24 hrs by MTT assay. It is filed as functional, cell-based. As to conditions: PANC-1, 24 h.
For data set [3], the system named is MIA PaCa-2. The data set is described as follows: In vivo inhibition of KRAS in human MIA PaCa-2 cells xenografted in BALB/C-nu/nu mouse model at 2.5 mg/kg,ip everyday for 18 days by IHC analysis. The data set is classed as functional, organism-based. The following applies: time 18.0 day. Background: In xenograft studies the graft and the host belong to different species.

A further data set concerns NCM460. Put plainly: Cytotoxicity against human NCM460 cells harboring wild-type KRAS assessed as cell growth inhibition incubated for 24 hrs by MTT assay. The data set is classed as functional, cell-based. The following applies: NCM460, 24 h.
Data set [4] deals with GTPase KRas (Homo sapiens) (UniProt P01116). The data set is described as follows: Inhibition of KRAS in human MIA PaCa-2 cells at 2.5 uM incubated for 24 hrs by Western blot analysis. It is filed as cell-based. For orientation: A western blot detects proteins with antibodies after separation by electrophoresis.
Data set [5] has the same target. The data set is described as follows: Inhibition of KRAS in human PANC-1 cells at 2.5 uM incubated for 24 hrs by Western blot analysis. The data set is classed as cell-based.
For data set [6] the target is unchanged. The data set is described as follows: Inhibition of KRAS in human MIA PaCa-2 cells at >5 uM incubated for 24 hrs by Western blot analysis. The data set is classed as cell-based.
For the next data set, the system named is HPAF-II. The data set is described as follows: Cytotoxicity against human HPAF-II cells harboring KRAS G12D mutant assessed as cell growth inhibition incubated for 24 hrs by MTT assay. It is filed as functional, cell-based.
A short description of data set [7]: Cytotoxicity against human HFL1 cells harboring wild-type KRAS assessed as cell growth inhibition incubated for 24 hrs by MTT assay. It is filed as toxicity, cell-based.
Another data set has as its system SW-620. Put plainly: Cytotoxicity against human SW620 cells harboring KRAS G12V mutant assessed as cell growth inhibition incubated for 24 hrs by MTT assay. It is filed as functional, cell-based. As to conditions: SW-620, 24 h.
Another data set has as its system U-87 MG. Put plainly: Cytotoxicity against human U-87 MG cells harboring wild-type KRAS assessed as cell growth inhibition incubated for 24 hrs by MTT assay. The data set is classed as functional, cell-based, U-87MG ATCC.
Data set [8] concerns the target GTPase KRas (Homo sapiens) (UniProt P01116). Put plainly: Inhibition of KRAS in human PANC-1 cells at >5 uM incubated for 24 hrs by Western blot analysis. The data set is classed as cell-based.
The subject of the next data set is NCI-H358. The data set is described as follows: Cytotoxicity against human NCI-H358 cells harboring KRAS G12C mutant assessed as cell growth inhibition incubated for 24 hrs by MTT assay. The following applies: NCI-H358, 24 h. It is filed as functional, cell-based.
The nature of data set [9]: Cytotoxicity against human LX2 cells harboring wild-type KRAS assessed as cell growth inhibition incubated for 24 hrs by MTT assay. The data set is classed as toxicity, cell-based, LX-2.
A further data set has as its system HCT-116. Put plainly: Cytotoxicity against human HCT-116 cells harboring KRAS G13D mutant assessed as cell growth inhibition incubated for 24 hrs by MTT assay. The data set is classed as functional, cell-based. The following applies: HCT-116, 24 h.

Chain of GTPase KRas (Homo sapiens) (P01116 whole entry, looked up): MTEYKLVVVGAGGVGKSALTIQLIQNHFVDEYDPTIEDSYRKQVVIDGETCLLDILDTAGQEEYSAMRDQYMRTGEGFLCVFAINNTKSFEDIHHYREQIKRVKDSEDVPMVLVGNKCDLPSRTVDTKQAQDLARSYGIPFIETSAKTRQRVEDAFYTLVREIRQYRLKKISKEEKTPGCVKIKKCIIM

Broadly, the IC50 is the point on the concentration scale where inhibition reaches its midpoint. As to `C=CC(=O)N1CCN(c2nc(=O)n(-c3c(C)ccnc3C(C)C)c3nc(-c4c(O)cccc4F)c(F)cc23)[C@@H](C)C1` [SOTORASIB], the IC50 (in [1]; with MIA PaCa-2 [2]; with PANC-1; in the data set on NCM460) was greater than 40 µM in each case. Moreover, the result in the data set on MIA PaCa-2 [3] was inactive.

On to `CCN(CC)c1ccc2cc(/C=C/c3ccc4cc(F)c(NCCN5CCCCC5)cc4[n+]3C)c(=O)oc2c1`, for which the inhibition entry in data set [4] and in data set [5] was “Active” throughout. Moreover, the IC50 in [1] was greater than 40 µM; with MIA PaCa-2 [2], 43 µM; with PANC-1, 5.8 µM; in the data set on NCM460, greater than 40 µM.

For the compound `CCCCN(CCCC)CCCn1cc(CNc2cc3c(cc2F)c(N2CCN(C)CC2)cc(/C=C/c2cc4ccc(N(CC)CC)cc4oc2=O)[n+]3C)nn1`, the inhibition result in data set [4] and in data set [5] was “Active” throughout. In addition, the IC50 in [1] was greater than 40 µM; in the data set with MIA PaCa-2 [2] it was 5.9 µM; with PANC-1, 8.8 µM; with NCM460 it was greater than 40 µM.

As for `CCN(CC)CCCNc1cc2c(ccc(/C=C/c3cc4ccc(N(CC)CC)cc4oc3=O)[n+]2C)cc1F`, the inhibition result in data set [4] and in data set [5] was “Active” in each case. For the same compound, the IC50 in data set [1] is greater than 40 µM; in the data set with MIA PaCa-2 [2], 7.7 µM; with PANC-1, 7.2 µM; with NCM460, greater than 40 µM.

In the case of `CCN(CC)c1ccc2cc(/C=C/c3ccc4cc(F)c(NCCCN(C)C)cc4[n+]3C)c(=O)oc2c1`, the inhibition result in data set [4] and in [5] was “Active” throughout. For the same compound, the IC50 is greater than 40 µM in data set [1], 8.6 µM in the data set with MIA PaCa-2 [2], 9 µM in the data set on PANC-1 and greater than 40 µM in the data set with NCM460.

With `CCN(CC)c1ccc2cc(/C=C/c3cc(N4CCCN(C)CC4)c4cc(F)c(N5CCCN(C)CC5)cc4[n+]3C)c(=O)oc2c1`, the inhibition entry in [4] and in data set [5] was “Active” throughout. Also, the IC50 in data set [1] is greater than 40 µM; in the data set with MIA PaCa-2 [2] it was 10 µM; in the data set on PANC-1, 11.5 µM; with NCM460, greater than 40 µM.

As for `CCN(CC)c1ccc2cc(/C=C/c3cc(N4CCN(C)CC4)c4cc(F)c(NCc5cn([C@@H]6O[C@H](CO)[C@@H](O)[C@H](O)[C@H]6O)nn5)cc4[n+]3C)c(=O)oc2c1`, the IC50 (in data set [1]; in the data set on MIA PaCa-2 [2]; in the data set on PANC-1; in the data set on NCM460) was greater than 40 µM in each case.

Consider `CCN(CC)c1ccc2cc(/C=C/c3ccc4cc(F)c(NCCCN5CCCC5)cc4[n+]3C)c(=O)oc2c1`, for which the inhibition entry in data set [4] and in [5] was “Active” each time. For the same compound, the IC50 in data set [1] was greater than 40 µM; in the data set with MIA PaCa-2 [2], 7.8 µM; in the data set on PANC-1, 11.8 µM; with NCM460 it was greater than 40 µM.

With `CCN(CC)c1ccc2cc(/C=C/c3ccc4cc(F)c(N5CCN(C)CC5)cc4[n+]3C)c(=O)oc2c1`, the inhibition entry in [6] and in data set [8] was “Active” throughout. In addition, the IC50 with HPAF-II was 32.1 µM; in [1], greater than 40 µM; in the data set on MIA PaCa-2 [2] it was 10.8 µM; with SW-620, 18.6 µM; with U-87 MG, greater than 40 µM; in the data set on NCI-H358 it was 11.9 µM. Further, the half-maximal inhibitory concentration (IC50) in the data set on PANC-1 is 14.7 µM; with HCT-116, 19.1 µM; with NCM460, greater than 40 µM. In addition, the IC50 at 24 h in data set [7] and in data set [9] was greater than 40 µM each time.

As to `CCCCN(CCCC)CCCn1cc(CN2CCN(c3cc4c(ccc(/C=C/c5cc6ccc(N(CC)CC)cc6oc5=O)[n+]4C)cc3F)CC2)nn1`, the IC50 in data set [1] was greater than 40 µM; in the data set with MIA PaCa-2 [2] it was 7 µM; in the data set on PANC-1, 26 µM; in the data set on NCM460, greater than 40 µM.

On to `CCN(CC)CCCn1cc(CN2CCN(c3cc4c(ccc(/C=C/c5cc6ccc(N(CC)CC)cc6oc5=O)[n+]4C)cc3F)CC2)nn1`, for which the IC50 (in [1]; in the data set with MIA PaCa-2 [2]; in the data set on PANC-1; in the data set with NCM460) was greater than 40 µM in each case.

With `CCN(CC)c1ccc2cc(/C=C/c3ccc4cc(F)c(NCCCN5CCOCC5)cc4[n+]3C)c(=O)oc2c1`, the inhibition result in [4] and in data set [5] was “Active” in each case. Besides, the IC50 in [1] is greater than 40 µM; with MIA PaCa-2 [2], 4.2 µM; in the data set with PANC-1, 6 µM; with NCM460, greater than 40 µM.

As for `CCN(CC)c1ccc2cc(/C=C/c3cc(NCCCn4ccnc4)c4cc(F)c(NCCCn5ccnc5)cc4[n+]3C)c(=O)oc2c1`, the IC50 in data set [1] was greater than 40 µM; in the data set with MIA PaCa-2 [2] it was 33.2 µM; in the data set with PANC-1 it was greater than 40 µM; in the data set with NCM460, greater than 40 µM.

For the compound `CCN(CC)c1ccc2cc(/C=C/c3cc(NCCN4CCCC4)c4cc(F)c(NCCN5CCCC5)cc4[n+]3C)c(=O)oc2c1`, the IC50 in [1] was greater than 40 µM; with MIA PaCa-2 [2], 17 µM; in the data set on PANC-1, greater than 40 µM; in the data set on NCM460, greater than 40 µM.
